The source made the active and inactive calls.
What was measured:
[1] = target: Citron Rho-interacting kinase (Homo sapiens, UniProt O14578)
[2] = target: Dual specificity protein kinase CLK2 (Homo sapiens, UniProt P49760)
[3] = target: T1, ATP-dependent RNA helicase DHX30 (Homo sapiens, UniProt Q7L2E3)
T1 sequence (Q7L2E3 whole entry): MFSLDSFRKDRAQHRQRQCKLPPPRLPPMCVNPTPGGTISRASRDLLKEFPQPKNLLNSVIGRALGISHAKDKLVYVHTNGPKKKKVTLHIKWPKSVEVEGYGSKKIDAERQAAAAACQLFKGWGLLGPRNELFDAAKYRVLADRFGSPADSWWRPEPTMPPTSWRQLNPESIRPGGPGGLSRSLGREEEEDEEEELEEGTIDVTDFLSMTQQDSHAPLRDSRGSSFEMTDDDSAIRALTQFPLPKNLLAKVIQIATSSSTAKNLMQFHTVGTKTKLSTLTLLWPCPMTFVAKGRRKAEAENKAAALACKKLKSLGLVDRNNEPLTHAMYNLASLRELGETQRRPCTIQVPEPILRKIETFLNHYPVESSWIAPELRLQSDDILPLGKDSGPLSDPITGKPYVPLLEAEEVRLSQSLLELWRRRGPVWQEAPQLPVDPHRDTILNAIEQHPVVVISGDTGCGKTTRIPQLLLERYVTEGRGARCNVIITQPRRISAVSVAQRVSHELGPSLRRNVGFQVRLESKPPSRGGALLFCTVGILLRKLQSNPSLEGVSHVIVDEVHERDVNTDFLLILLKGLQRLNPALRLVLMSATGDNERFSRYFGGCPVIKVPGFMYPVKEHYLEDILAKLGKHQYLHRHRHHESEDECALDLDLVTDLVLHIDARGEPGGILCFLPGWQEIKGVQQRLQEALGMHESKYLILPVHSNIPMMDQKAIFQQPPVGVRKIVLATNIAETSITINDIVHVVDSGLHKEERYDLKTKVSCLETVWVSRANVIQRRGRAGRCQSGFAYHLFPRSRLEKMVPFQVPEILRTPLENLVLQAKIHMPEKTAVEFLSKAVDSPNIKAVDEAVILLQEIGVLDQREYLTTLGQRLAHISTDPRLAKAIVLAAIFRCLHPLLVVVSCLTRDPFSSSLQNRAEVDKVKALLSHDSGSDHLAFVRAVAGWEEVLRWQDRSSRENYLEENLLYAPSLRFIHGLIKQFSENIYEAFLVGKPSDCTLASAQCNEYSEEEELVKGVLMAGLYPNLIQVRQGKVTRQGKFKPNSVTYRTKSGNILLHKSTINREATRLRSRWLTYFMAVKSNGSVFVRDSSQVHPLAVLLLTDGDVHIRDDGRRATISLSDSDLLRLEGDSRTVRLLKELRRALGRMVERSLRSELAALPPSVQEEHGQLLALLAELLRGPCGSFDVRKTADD

[4] = target: Putative heat shock protein HSP 90-beta 2 (Homo sapiens, UniProt Q58FF8)
[5] = target: T2, Dual specificity mitogen-activated protein kinase kinase 5 (Homo sapiens, UniProt Q13163)
T2 sequence (Q13163 whole entry): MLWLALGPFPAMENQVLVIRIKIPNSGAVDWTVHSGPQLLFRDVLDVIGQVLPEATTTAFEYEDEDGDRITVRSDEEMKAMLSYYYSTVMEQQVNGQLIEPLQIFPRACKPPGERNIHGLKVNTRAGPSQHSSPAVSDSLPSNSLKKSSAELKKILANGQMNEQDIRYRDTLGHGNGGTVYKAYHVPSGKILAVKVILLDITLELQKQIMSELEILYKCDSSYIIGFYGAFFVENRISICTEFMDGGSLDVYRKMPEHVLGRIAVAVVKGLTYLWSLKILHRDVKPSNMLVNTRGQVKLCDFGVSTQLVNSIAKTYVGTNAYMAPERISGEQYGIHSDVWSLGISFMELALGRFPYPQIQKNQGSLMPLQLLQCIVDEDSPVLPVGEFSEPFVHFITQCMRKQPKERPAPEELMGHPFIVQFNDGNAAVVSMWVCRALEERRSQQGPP

Obg-like ATPase 1 = Obg-like ATPase 1 (Homo sapiens, UniProt Q9NTK5)
[6] = target: T3, Dynamin-like GTPase OPA1, mitochondrial (Homo sapiens, UniProt O60313)
T3 sequence (O60313 whole entry): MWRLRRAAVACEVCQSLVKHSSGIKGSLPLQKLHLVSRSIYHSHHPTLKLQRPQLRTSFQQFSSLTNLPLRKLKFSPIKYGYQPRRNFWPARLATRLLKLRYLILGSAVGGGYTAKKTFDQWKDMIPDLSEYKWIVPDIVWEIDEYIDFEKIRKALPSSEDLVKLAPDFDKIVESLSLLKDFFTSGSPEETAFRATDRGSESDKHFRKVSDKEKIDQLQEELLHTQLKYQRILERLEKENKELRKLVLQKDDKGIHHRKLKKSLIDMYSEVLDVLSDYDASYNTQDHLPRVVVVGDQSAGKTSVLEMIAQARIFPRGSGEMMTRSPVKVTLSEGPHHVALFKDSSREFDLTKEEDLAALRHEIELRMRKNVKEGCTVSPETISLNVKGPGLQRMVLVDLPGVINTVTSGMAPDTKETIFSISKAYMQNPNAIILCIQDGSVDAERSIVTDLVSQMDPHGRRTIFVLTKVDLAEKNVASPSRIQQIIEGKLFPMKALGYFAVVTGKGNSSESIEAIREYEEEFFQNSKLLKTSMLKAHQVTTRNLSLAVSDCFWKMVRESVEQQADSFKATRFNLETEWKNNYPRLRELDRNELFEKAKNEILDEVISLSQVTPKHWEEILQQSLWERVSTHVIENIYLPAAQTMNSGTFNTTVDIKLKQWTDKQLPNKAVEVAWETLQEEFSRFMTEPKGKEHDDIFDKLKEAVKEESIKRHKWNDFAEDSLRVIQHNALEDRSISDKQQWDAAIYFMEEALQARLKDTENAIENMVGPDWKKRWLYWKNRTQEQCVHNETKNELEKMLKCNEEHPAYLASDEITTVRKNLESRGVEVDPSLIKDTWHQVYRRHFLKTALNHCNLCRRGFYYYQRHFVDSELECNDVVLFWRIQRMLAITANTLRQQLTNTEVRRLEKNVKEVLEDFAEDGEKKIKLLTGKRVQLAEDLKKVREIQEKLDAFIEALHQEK

Measured: Kd
Further: in the data inactive means no Kd found up to 30 µM.

Chain of Dual specificity protein kinase CLK2 (P49760 whole entry): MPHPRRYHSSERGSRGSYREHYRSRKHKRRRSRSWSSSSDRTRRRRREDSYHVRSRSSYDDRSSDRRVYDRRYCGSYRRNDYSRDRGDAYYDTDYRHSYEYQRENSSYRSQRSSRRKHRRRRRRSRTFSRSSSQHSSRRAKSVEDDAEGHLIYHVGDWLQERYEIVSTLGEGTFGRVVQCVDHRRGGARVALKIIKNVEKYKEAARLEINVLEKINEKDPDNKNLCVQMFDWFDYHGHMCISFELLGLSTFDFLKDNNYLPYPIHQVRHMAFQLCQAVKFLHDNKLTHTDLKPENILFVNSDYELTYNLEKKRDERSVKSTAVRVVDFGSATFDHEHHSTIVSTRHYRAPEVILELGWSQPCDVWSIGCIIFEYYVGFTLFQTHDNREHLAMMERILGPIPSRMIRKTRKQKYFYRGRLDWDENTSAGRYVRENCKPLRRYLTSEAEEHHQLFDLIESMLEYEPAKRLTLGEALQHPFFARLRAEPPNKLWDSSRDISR
Chain of Putative heat shock protein HSP 90-beta 2 (Q58FF8 whole entry): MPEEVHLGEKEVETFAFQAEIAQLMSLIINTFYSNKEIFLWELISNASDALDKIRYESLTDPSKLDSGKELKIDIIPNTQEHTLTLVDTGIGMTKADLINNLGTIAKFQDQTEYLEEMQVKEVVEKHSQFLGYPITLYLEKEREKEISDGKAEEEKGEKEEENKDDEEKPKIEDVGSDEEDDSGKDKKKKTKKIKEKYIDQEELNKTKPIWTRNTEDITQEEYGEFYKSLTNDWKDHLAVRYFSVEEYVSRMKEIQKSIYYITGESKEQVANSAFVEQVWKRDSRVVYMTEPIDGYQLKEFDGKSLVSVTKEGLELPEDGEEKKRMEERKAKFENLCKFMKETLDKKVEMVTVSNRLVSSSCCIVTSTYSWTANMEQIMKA
Chain of Obg-like ATPase 1 (Q9NTK5 whole entry, looked up): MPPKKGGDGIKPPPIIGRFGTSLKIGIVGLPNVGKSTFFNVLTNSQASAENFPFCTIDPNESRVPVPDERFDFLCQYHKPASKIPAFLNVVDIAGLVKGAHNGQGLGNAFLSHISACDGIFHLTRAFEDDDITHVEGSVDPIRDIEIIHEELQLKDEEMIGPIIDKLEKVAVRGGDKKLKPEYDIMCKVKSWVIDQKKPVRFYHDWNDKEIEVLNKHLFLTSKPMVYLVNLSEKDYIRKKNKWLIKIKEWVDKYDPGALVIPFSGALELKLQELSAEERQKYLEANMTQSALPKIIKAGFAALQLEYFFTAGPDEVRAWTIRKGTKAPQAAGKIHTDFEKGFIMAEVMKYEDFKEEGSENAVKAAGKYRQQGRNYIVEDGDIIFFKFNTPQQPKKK
Chain of Citron Rho-interacting kinase (O14578 whole entry): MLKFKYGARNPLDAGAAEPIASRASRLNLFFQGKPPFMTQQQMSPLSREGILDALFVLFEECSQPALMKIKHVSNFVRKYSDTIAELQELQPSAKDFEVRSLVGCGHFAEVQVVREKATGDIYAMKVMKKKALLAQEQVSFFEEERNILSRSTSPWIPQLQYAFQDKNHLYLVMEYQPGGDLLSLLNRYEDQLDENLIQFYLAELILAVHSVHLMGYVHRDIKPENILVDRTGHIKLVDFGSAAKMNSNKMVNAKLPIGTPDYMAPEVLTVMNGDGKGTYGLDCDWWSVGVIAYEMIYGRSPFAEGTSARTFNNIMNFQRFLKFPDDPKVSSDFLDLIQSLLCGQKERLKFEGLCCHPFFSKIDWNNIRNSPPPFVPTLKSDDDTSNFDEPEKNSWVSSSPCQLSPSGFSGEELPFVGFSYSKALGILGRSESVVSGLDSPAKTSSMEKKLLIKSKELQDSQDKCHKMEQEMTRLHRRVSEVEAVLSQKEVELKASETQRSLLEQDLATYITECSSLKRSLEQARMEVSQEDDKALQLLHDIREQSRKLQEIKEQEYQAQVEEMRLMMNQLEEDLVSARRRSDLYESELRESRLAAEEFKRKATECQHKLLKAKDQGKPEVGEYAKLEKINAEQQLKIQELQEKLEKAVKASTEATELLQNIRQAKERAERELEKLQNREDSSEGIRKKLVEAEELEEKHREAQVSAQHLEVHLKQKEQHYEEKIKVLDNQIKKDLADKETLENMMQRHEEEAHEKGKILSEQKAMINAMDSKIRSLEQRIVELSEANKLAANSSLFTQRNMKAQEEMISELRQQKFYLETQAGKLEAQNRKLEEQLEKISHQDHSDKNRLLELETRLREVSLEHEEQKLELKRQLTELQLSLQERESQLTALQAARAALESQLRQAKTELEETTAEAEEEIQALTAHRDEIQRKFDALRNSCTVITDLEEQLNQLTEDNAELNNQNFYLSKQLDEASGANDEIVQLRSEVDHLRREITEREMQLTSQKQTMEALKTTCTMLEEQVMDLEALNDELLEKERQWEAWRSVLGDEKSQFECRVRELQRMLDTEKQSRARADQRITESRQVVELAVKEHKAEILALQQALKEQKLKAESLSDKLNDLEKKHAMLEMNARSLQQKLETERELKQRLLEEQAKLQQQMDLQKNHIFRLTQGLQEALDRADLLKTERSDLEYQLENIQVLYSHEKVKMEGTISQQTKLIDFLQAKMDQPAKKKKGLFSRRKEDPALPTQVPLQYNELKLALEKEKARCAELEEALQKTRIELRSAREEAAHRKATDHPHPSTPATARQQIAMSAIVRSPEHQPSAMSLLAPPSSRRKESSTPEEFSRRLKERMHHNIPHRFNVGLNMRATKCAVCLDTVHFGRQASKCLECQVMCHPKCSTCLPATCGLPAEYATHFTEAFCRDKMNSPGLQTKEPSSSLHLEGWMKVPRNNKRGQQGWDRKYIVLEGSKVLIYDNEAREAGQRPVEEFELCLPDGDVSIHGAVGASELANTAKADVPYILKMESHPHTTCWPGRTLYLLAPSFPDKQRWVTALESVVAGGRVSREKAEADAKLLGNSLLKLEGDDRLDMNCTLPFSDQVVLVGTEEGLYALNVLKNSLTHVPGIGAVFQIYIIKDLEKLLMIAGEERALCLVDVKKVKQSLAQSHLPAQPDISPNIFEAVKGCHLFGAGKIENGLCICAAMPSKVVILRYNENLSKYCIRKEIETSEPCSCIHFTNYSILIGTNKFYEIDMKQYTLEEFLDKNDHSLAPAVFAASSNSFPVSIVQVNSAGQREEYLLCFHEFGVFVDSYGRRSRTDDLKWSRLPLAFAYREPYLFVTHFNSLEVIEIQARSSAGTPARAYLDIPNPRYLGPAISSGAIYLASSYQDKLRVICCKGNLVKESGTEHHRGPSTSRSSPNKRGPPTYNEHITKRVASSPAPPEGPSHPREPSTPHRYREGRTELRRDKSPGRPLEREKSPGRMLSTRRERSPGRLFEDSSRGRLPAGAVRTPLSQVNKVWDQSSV

CO[C@H]1C[C@@H]2CC[C@@H](C)[C@@](O)(O2)C(=O)C(=O)N2CCCC[C@H]2C(=O)O[C@H]([C@H](C)C[C@@H]2CC[C@@H](O)[C@H](OC)C2)CC(=O)[C@H](C)/C=C(\C)[C@@H](O)[C@@H](OC)C(=O)[C@H](C)C[C@H](C)/C=C/C=C/C=C/1C [SIROLIMUS]
inactive: [1] > 30 µM | [2] > 30 µM | [3] > 30 µM | [4] > 30 µM | [5] > 30 µM | Obg-like ATPase 1 > 30 µM | [6] > 30 µM

O=C(Cc1ccc(-c2ccc(OCCN3CCOCC3)cc2)cn1)NCc1ccccc1 [TIRBANIBULIN]
inactive: [1] > 30 µM | [2] > 30 µM | [3] > 30 µM | [4] > 30 µM | [5] > 30 µM | Obg-like ATPase 1 > 30 µM | [6] > 30 µM

COc1cc2ncnc(Oc3cccc(NC(=O)Nc4cc(C(C)(C)C(F)(F)F)on4)c3)c2cc1OC [CEP-32496]
inactive: [1] > 30 µM | [2] > 30 µM | [3] > 30 µM | [4] > 30 µM | [5] > 30 µM | Obg-like ATPase 1 > 30 µM | [6] > 30 µM

Cc1cc(C(=O)NOCCO)c(Nc2ccc(I)cc2F)n(C)c1=O [AZD-8330]
inactive: [1] > 30 µM | [2] > 30 µM | [3] > 30 µM | [4] > 30 µM | Obg-like ATPase 1 > 30 µM | [6] > 30 µM
active: [5] 2.66 µM

C#Cc1cccc(Nc2ncnc3cc(OC)c(OCCCCCCC(=O)NO)cc23)c1 [CUDC-101]
inactive: [1] > 30 µM | [2] > 30 µM | [3] > 30 µM | [4] > 30 µM | [5] > 30 µM | Obg-like ATPase 1 > 30 µM | [6] > 30 µM

NC1(c2ccc(-c3nc4ccn5c(=O)[nH]nc5c4cc3-c3ccccc3)cc2)CCC1 [MK-2206]
inactive: [1] > 30 µM | [2] > 30 µM | [3] > 30 µM | [4] > 30 µM | [5] > 30 µM | Obg-like ATPase 1 > 30 µM | [6] > 30 µM

COCC(=O)NC/C=C/c1ccc2ncnc(Nc3ccc(Oc4ccc(C)nc4)c(C)c3)c2c1 [CP-724714]
inactive: [1] > 30 µM | [2] > 30 µM | [3] > 30 µM | [4] > 30 µM | Obg-like ATPase 1 > 30 µM | [6] > 30 µM
active: [5] 1.26 µM

Cn1ncc(Cl)c1-c1cc(C(=O)N[C@H](CN)Cc2ccc(F)c(F)c2)oc1Cl [UPROSERTIB]
inactive: [1] > 30 µM | [2] > 30 µM | [3] > 30 µM | [4] > 30 µM | [5] > 30 µM | Obg-like ATPase 1 > 30 µM | [6] > 30 µM

Cc1cnc(NC(=O)Nc2cc(Br)c(C)cc2OC[C@@H]2CNCCO2)cn1 [RABUSERTIB]
inactive: [1] > 30 µM | [2] > 30 µM | [3] > 30 µM | [4] > 30 µM | [5] > 30 µM | Obg-like ATPase 1 > 30 µM | [6] > 30 µM

Cc1cccc(-c2nn3c(c2-c2ccnc4ccc(C(N)=O)cc24)CCC3)n1 [GALUNISERTIB]
inactive: [1] > 30 µM | [2] > 30 µM | [3] > 30 µM | [4] > 30 µM | [5] > 30 µM | Obg-like ATPase 1 > 30 µM | [6] > 30 µM

O=C(Nc1nc2cccc(-c3ccc(CN4CCS(=O)(=O)CC4)cc3)n2n1)C1CC1 [FILGOTINIB]
inactive: [1] > 30 µM | [2] > 30 µM | [3] > 30 µM | [4] > 30 µM | [5] > 30 µM | Obg-like ATPase 1 > 30 µM | [6] > 30 µM

Cc1nc(Nc2n[nH]c3c2CN(C(=O)N[C@H](CN(C)C)c2ccccc2)C3(C)C)c2sccc2n1 [PF-03758309]
inactive: [1] > 30 µM | [2] > 30 µM | [3] > 30 µM | [4] > 30 µM | [5] > 30 µM | Obg-like ATPase 1 > 30 µM | [6] > 30 µM

Cc1csc(-c2nnc(Nc3ccc(Oc4ncccc4-c4ccnc(N)n4)cc3)c3ccccc23)c1 [AMG-900]
active: [2] 3.22 µM
inactive: [1] > 30 µM | [3] > 30 µM | [4] > 30 µM | [5] > 30 µM | Obg-like ATPase 1 > 30 µM | [6] > 30 µM

COCc1c(-c2ccc(NC(=O)Nc3cc(C(F)(F)F)ccc3F)c(F)c2)c2c(N)ncnn2c1CN1CCOCC1
inactive: [1] > 30 µM | [2] > 30 µM | [3] > 30 µM | [4] > 30 µM | [5] > 30 µM | Obg-like ATPase 1 > 30 µM | [6] > 30 µM

C=CC(=O)N1CCC[C@H](n2c(=O)n(-c3ccc(Oc4ccccc4)cc3)c3c(N)ncnc32)C1
inactive: [1] > 30 µM | [2] > 30 µM | [3] > 30 µM | [4] > 30 µM | [5] > 30 µM | Obg-like ATPase 1 > 30 µM | [6] > 30 µM

COc1ccc(S(=O)(=O)N(C(C)=O)c2ccccc2/C=C/c2cc[n+]([O-])cc2)cc1 [HMN-214]
inactive: [1] > 30 µM | [2] > 30 µM | [3] > 30 µM | [4] > 30 µM | [5] > 30 µM | Obg-like ATPase 1 > 30 µM | [6] > 30 µM

CO[C@H]1C[C@@H]2CC[C@@H](C)[C@@](O)(O2)C(=O)C(=O)N2CCCC[C@H]2C(=O)O[C@H]([C@H](C)C[C@@H]2CC[C@@H](OC(=O)C(C)(CO)CO)[C@H](OC)C2)CC(=O)[C@H](C)/C=C(\C)[C@@H](O)[C@@H](OC)C(=O)[C@H](C)C[C@H](C)/C=C/C=C/C=C/1C [TEMSIROLIMUS]
inactive: [1] > 30 µM | [2] > 30 µM | [3] > 30 µM | [4] > 30 µM | [5] > 30 µM | Obg-like ATPase 1 > 30 µM | [6] > 30 µM

Source: ChEMBL document CHEMBL3991601, “The target landscape of clinical kinase drugs” (Science, 2017)
